Test results taken from US20250171459A1, “2-METHYL-4',5'-DIHYDROSPIRO[PIPERIDINE-4,7'-THIENO[2,3-C]PYRAN] DERIVATIVES AS INHIBITORS OF APOL1 AND METHODS OF USING SAME” (Vertex Pharmaceuticals Incorporated, priority 2022, published 2025).

Target: T1, APOL1 (Homo sapiens, UniProt O14791)
T1 sequence (O14791 1-398 S342G/I384M): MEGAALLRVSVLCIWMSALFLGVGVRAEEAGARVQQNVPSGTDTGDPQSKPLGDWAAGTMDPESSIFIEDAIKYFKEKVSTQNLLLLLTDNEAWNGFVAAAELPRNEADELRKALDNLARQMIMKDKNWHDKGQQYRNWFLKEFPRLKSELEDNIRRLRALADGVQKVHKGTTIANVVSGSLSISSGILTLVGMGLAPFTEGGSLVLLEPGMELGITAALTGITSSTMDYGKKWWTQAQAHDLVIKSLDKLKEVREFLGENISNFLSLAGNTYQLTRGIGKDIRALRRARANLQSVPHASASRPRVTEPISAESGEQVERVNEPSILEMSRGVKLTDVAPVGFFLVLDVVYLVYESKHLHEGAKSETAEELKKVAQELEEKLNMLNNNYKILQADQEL
Assay: MultiTox-Fluor Multiplex Cytotoxicity Assay in tet-inducible APOL1 T-REx-HEK293 cells (cell rescue, ratio of dead to live cells)
Type: cell-based
Details: tet-inducible transgenic APOL1 T-REx-HEK293 cell lines, 50 ng/mL tet, 24 hours; read-out: IP50 (i.e., IC50 for cell proliferation)
In short: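 T-REx-HEK293 cells with tet-inducible APOL1 were treated with compound (10 μM top, 10-point 3-fold dilution, duplicate) plus 50 ng/mL tetracycline for 24 h at 37° C, in DMEM with 2% tet-free FBS. MultiTox-Fluor protease signals gave a dead/live ratio, normalized to no tet (100% viability) and tet alone (0%).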

SMILES | IC50 [nM]
COc1ncc(CN2CC[C@]3(C[C@@H]2C)OC[C@H](O)c2cc(Cl)sc23)cn1 [Compound 807] | 100 to 500
Cc1cccc(CN2CC[C@]3(C[C@@H]2C)OC[C@H](O)c2cc(Cl)sc23)n1 [Compound 808] | 500 to 1000
Cc1cncc(CN2CC[C@]3(C[C@@H]2C)OC[C@H](O)c2cc(Cl)sc23)c1 [Compound 809] | 100 to 500
C[C@H]1C[C@@]2(CCN1Cc1ccc(C(=O)N(C)C)cc1)OC[C@H](O)c1cc(Cl)sc12 [Compound 810] | 100 to 500
C[C@H]1C[C@@]2(CCN1Cc1ccccn1)OC[C@H](O)c1cc(Cl)sc12 [Compound 811] | 500 to 1000
CNC(=O)c1cccc(CN2CC[C@]3(C[C@@H]2C)OC[C@H](O)c2cc(Cl)sc23)c1 [Compound 812] | 100 to 500
C[C@H]1C[C@@]2(CCN1Cc1cn(C)nn1)OC[C@H](O)c1cc(Cl)sc12 [Compound 813] | 100 to 500
C[C@H]1C[C@@]2(CCN1CCCn1cccn1)OC[C@H](O)c1cc(Cl)sc12 [Compound 815] | 500 to 1000
Cc1cncc(N2CCC(CN3CC[C@]4(C[C@@H]3C)OC[C@H](O)c3cc(Cl)sc34)CC2)n1 [Compound 816] | 500 to 1000
C[C@H]1C[C@@]2(CCN1Cc1cn[nH]c1)OCC(O)c1cc(Cl)sc12 (some centres unmarked) [Compound 817] | < 100
C[C@H]1C[C@@]2(CCN1Cc1cn(CCS(C)(=O)=O)nn1)OCC(=O)c1cc(Cl)sc12 [Compound 822, (2S,4R)-2′-chloro-2-methyl-1-[[1-(2-methylsulfonylethyl)triazol-4-yl]methyl]spiro[piperidine-4,7′-thieno[2,3-c]pyran]-4′-one] | 100 to 500
C[C@H]1C[C@@]2(CCN1Cc1cn(CCS(C)(=O)=O)nn1)OCC(O)c1cc(Cl)sc12 (some centres unmarked) [Compound 823] | 100 to 500
C[C@H]1C[C@@]2(CCN1Cc1ccc(NS(=O)(=O)C3CC3)nc1)OCC(O)c1cc(Cl)sc12 (some centres unmarked) [Compound 824] | < 100
C[C@H]1C[C@@]2(CCN1Cc1cnn(CCS(C)(=O)=O)c1)OC[C@](O)(C(F)F)c1cc(Cl)sc12 [Compound 827, (2′S,4S,7R)-2-chloro-4-(difluoromethyl)-2′-methyl-1′-[[1-(2-methylsulfonylethyl)pyrazol-4-yl]methyl]spiro[5H-thieno[2,3-c]pyran-7,4′-piperidine]-4-ol] | < 100
C[C@H]1C[C@@]2(CCN1Cc1cn[nH]c1)OC[C@](O)(C(F)F)c1cc(Cl)sc12 [Compound 828, (2′S,4S,7R)-2-chloro-4-(difluoromethyl)-2′-methyl-1′-(1H-pyrazol-4-ylmethyl)spiro[5H-thieno[2,3-c]pyran-7,4′-piperidine]-4-ol] | < 100
C[C@H]1C[C@@]2(CCN1Cc1cnc(NC(C)(C)CO)nc1)OC[C@](O)(C(F)F)c1cc(Cl)sc12 [Compound 830] | < 100
C[C@H]1C[C@@]2(CCN1Cc1cnn(C)c1)OC[C@](O)(C(F)F)c1cc(Cl)sc12 [Compound 831] | < 100
C[C@H]1C[C@@]2(CCN1Cc1cn(CCS(C)(=O)=O)nn1)OC[C@](O)(C(F)F)c1cc(Cl)sc12 [Compound 832] | < 100
C[C@H]1C[C@@]2(CCN1Cc1cnn(CC(C)(CO)CO)c1)OC[C@](O)(C(F)F)c1cc(Cl)sc12 [Compound 833] | < 100
C[C@H]1C[C@@]2(CCN1Cc1cnn(CCS(C)(=O)=O)c1)OC[C@@](O)(C(F)F)c1cc(Cl)sc12 [Compound 834] | < 100
CO[C@]1(C(F)F)CO[C@@]2(CCN(Cc3cnn(CCS(C)(=O)=O)c3)[C@@H](C)C2)c2sc(Cl)cc21 [Compound 835] | < 100

SMILES | IC50 [nM]
C[C@H]1C[C@@]2(CCN1Cc1cn(CC(O)C(C)(C)O)nn1)OC[C@@](O)(C(F)F)c1cc(Cl)sc12 (stereo partly drawn) [Compound 836, 1-[4-[[(2′S,4R,7R)-2-chloro-4-(difluoromethyl)-4-hydroxy-2′-methyl-spiro[5H-thieno[2,3-c]pyran-7,4′-piperidine]-1′-yl]methyl]triazol-1-yl]-3-methyl-butane-2,3-diol] | < 100
CC(O)Cn1cc(CN2CC[C@]3(C[C@@H]2C)OC[C@](O)(C(F)F)c2cc(Cl)sc23)nn1 (some centres unmarked) [Compound 837] | < 100
C[C@H]1C[C@@]2(CCN1Cc1cn(CC(C)(C)CO)nn1)OC[C@](O)(C(F)F)c1cc(Cl)sc12 [Compound 838] | 500 to 1000
C[C@H]1C[C@@]2(CCN1Cc1cn(CCCS(C)(=O)=O)nn1)OC[C@](O)(C(F)F)c1cc(Cl)sc12 [Compound 839] | < 100
C[C@H]1C[C@@]2(CCN1Cc1cn(CC(C)(CO)CO)nn1)OC[C@](O)(C(F)F)c1cc(Cl)sc12 [Compound 840] | < 100
C[C@H]1C[C@@]2(CCN1Cc1cn(C3CCOCC3)nn1)OC[C@](O)(C(F)F)c1cc(Cl)sc12 [Compound 841] | < 100
CCOC1CO[C@@]2(CCN(Cc3cnn(CCS(C)(=O)=O)c3)[C@@H](C)C2)c2sc(Cl)cc21 (some centres unmarked) [Compound 844] | 100 to 500
CC(C)OC1CO[C@@]2(CCN(Cc3cnn(CCS(C)(=O)=O)c3)[C@@H](C)C2)c2sc(Cl)cc21 (some centres unmarked) [Compound 845] | 100 to 500
[2H]C([2H])([2H])OC1CO[C@@]2(CCN(Cc3cnn(CCS(C)(=O)=O)c3)[C@@H](C)C2)c2sc(Cl)cc21 (some centres unmarked) [Compound 846] | < 100
CC(=O)OC1CO[C@@]2(CCN(Cc3cnn(CCS(C)(=O)=O)c3)[C@@H](C)C2)c2sc(Cl)cc21 (stereo partly drawn) [Compound 847, [(2′S, 7R)-2-chloro-2′-methyl-1′-[[1-(2-methylsulfonylethyl)pyrazol-4-yl]methyl]spiro[4,5-dihydrothieno[2,3-c]pyran-7,4′-piperidine]-4-yl]acetate] | < 100
C[C@H]1C[C@@]2(CCN1Cc1cnn(C)c1)OCC(C)(O)c1cc(Cl)sc12 (stereo partly drawn) [Compound 848, (2′S, 7R)-2-chloro-2′,4-dimethyl-1′-[(1-methylpyrazol-4-yl)methyl]spiro[5H-thieno[2,3-c]pyran-7,4′-piperidine]-4-ol] | < 100
C[C@H]1C[C@@]2(CCN1Cc1cnn(C)c1)OCC(O)(c1ccccc1)c1cc(Cl)sc12 (stereo partly drawn) [Compound 849, (2′S,7R)-2-chloro-2′-methyl-1′-[(1-methylpyrazol-4-yl)methyl]-4-phenyl-spiro[5H-thieno[2,3-c]pyran-7,4′-piperidine]-4-ol] | 100 to 500
C[C@H]1C[C@@]2(CCN1Cc1cnn(C)c1)OCC(O)(c1ccccc1)c1cc(Cl)sc12 (stereo partly drawn) [Compound 850, (2′S,7R)-2-chloro-2′-methyl-1′-[(1-methylpyrazol-4-yl)methyl]-4-phenyl-spiro[5H-thieno[2,3-c]pyran-7,4′-piperidine]-4-ol] | 100 to 500
C[C@H]1C[C@@]2(CCN1Cc1cnn(CCS(C)(=O)=O)c1)OCC(O)(C(F)(F)F)c1cc(Cl)sc12 (stereo partly drawn) [Compound 852, (2′S,7R)-2-chloro-2′-methyl-1′-[[1-(2-methylsulfonylethyl)pyrazol-4-yl]methyl]-4-(trifluoromethyl)spiro[5H-thieno[2,3-c]pyran-7,4′-piperidine]-4-ol] | < 100
C[C@H]1C[C@@]2(CCN1Cc1cnn(CCS(C)(=O)=O)c1)OCC(N1C(=O)c3ccccc3C1=O)c1cc(Cl)sc12 (stereo partly drawn) [Compound 853, 2-[(2′S, 7R)-2-chloro-2′-methyl-1′-[[1-(2-methylsulfonylethyl)pyrazol-4-yl]methyl]spiro[4,5-dihydrothieno[2,3-c]pyran-7,4′-piperidine]-4-yl]isoindoline-1,3-dione] | 100 to 500
C[C@H]1C[C@@]2(CCN1Cc1cnn(CCS(C)(=O)=O)c1)OCC(N)c1cc(Cl)sc12 (stereo partly drawn) [Compound 854, (2′S, 7R)-2-chloro-2′-methyl-1′-[[1-(2-methylsulfonylethyl)pyrazol-4-yl]methyl]spiro[4,5-dihydrothieno[2,3-c]pyran-7,4′-piperidine]-4-amine] | < 100
CC(=O)NC1CO[C@@]2(CCN(Cc3cnn(CCS(C)(=O)=O)c3)[C@@H](C)C2)c2sc(Cl)cc21 (stereo partly drawn) [Compound 855, N-[(2′S, 7R)-2-chloro-2′-methyl-1′-[[1-(2-methylsulfonylethyl)pyrazol-4-yl]methyl]spiro[4,5-dihydrothieno[2,3-c]pyran-7,4′-piperidine]-4-yl]acetamide] | < 100
C[C@H]1C[C@@]2(CCN1Cc1cnn(CCS(C)(=O)=O)c1)OCC(C#N)c1cc(Cl)sc12 (stereo partly drawn) [Compound 856, (2′S, 7R)-2-chloro-2′-methyl-1′-[[1-(2-methylsulfonylethyl)pyrazol-4-yl]methyl]spiro[4,5-dihydrothieno[2,3-c]pyran-7,4′-piperidine]-4-carbonitrile] | < 100
CC(=O)N(C)C1CO[C@@]2(CCN(Cc3cnn(CCS(C)(=O)=O)c3)[C@@H](C)C2)c2sc(Cl)cc21 (stereo partly drawn) [Compound 857, N-[(2′S, 7R)-2-chloro-2′-methyl-1′-[[1-(2-methylsulfonylethyl)pyrazol-4-yl]methyl]spiro[4,5-dihydrothieno[2,3-c]pyran-7,4′-piperidine]-4-yl]-N-methyl-acetamide] | < 100
Cc1c(Cl)sc2c1C(O)CO[C@@]21CCN(Cc2cnn(CCS(C)(=O)=O)c2)[C@@H](C)C1 (stereo partly drawn) [Compound 858, (2′S, 7R)-2-chloro-2′,3-dimethyl-1′-[[1-(2-methylsulfonylethyl)pyrazol-4-yl]methyl]spiro[4,5-dihydrothieno[2,3-c]pyran-7,4′-piperidine]-4-ol] | < 100
